This note sets out measurements from ChEMBL document CHEMBL1201862, “PubChem BioAssay data set” (2004).

Some test systems named below: UO-31; OVCAR-3; HOP-62; RPMI-8226; K562; SK-OV-3; NCI-H226; IGROV-1; NCI-H23; EKVX; SR; RXF 393; UACC-257; SF-268; OVCAR-4; U-251; SK-MEL-2; ACHN; MDA-N.
Experiment in all cases: DTP human tumour cell line panel, 48 h

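Test compounds were applied to cells in 96-well plates for 48 hours at 5 doses. Abbreviation: GI50, concentration required for 50% inhibition of growth.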 The source made the active and inactive calls. No stated cut-off is given here; in the data, active = GI50 up to about 1.1 µM and inactive = higher. Bounds are passed on as bounds.

A word on the GI50: it is the concentration that inhibits growth by half. On to `Nc1ncnc2c1ncn2[C@@H]1O[C@H](COC(c2ccccc2)(c2ccccc2)c2ccccc2)[C@@H](OC(=S)Oc2ccccc2)[C@@H]1F`, for which the GI50 was 4.16 µM (inactive) in the test on UO-31; 4.55 µM (inactive) in the test with OVCAR-3; 15.5 µM (inactive) in the test on HOP-62; 3.49 µM (inactive) in the test on RPMI-8226; 3.34 µM (inactive) with K562; 14.1 µM (inactive) with SK-OV-3. In addition, the GI50 in the test on NCI-H226 was 11.4 µM (inactive); in the test with IGROV-1, 3.23 µM (inactive); in the test on NCI-H23, 3.94 µM (inactive); in the test on EKVX, 12.3 µM (inactive); in the test with SR, 2.72 µM (inactive); with RXF 393, 2.82 µM (inactive). Also, the GI50 in the test on UACC-257 is 14.6 µM (inactive); with SF-268 it was 3.66 µM (inactive); in the test on OVCAR-4, 9.08 µM (inactive); with U-251, 10.2 µM (inactive); in the test on SK-MEL-2, 5.47 µM (inactive); with ACHN, 10.7 µM (inactive).

Consider `COC1=NCc2ccccc2-c2ccccc21`, for which the GI50 is 20.2 µM (inactive) in the test with UO-31; > 100 µM (inactive) in the test with OVCAR-3; > 100 µM (inactive) in the test on K562; > 100 µM (inactive) in the test on SK-OV-3; > 100 µM (inactive) in the test on NCI-H226; > 100 µM (inactive) in the test with NCI-H23. Further, the GI50 with RXF 393, in the test with UACC-257, with SF-268, in the test with OVCAR-4, in the test on U-251 and with SK-MEL-2 was > 100 µM (inactive) each time. Also, in the test with ACHN, the GI50 is > 100 µM (inactive).

With `O=C(N/N=C(COc1ccc(Cl)cc1)\N=C\c1ccncc1)c1ccncc1`, the GI50 is > 100 µM (inactive) in the test on OVCAR-3; > 100 µM (inactive) with HOP-62; 83.8 µM (inactive) with RPMI-8226; > 100 µM (inactive) in the test with K562; > 100 µM (inactive) in the test with SK-OV-3; > 100 µM (inactive) in the test on NCI-H226. Moreover, the GI50 in the test on IGROV-1 is > 100 µM (inactive); with NCI-H23 it was > 100 µM (inactive); in the test on EKVX, > 100 µM (inactive); in the test on RXF 393, 57.1 µM (inactive); in the test on UACC-257 it was > 100 µM (inactive); in the test on SF-268, > 100 µM (inactive). The GI50 in the test with OVCAR-4, in the test on U-251, in the test with SK-MEL-2, in the test with MDA-N and in the test on ACHN was > 100 µM (inactive) each time.

On to `O=c1c(C(c2ccc([N+](=O)[O-])cc2)c2c(O)oc3ccccc3c2=O)c(O)oc2ccccc12`, for which the GI50 in the test with UO-31 is > 100 µM (inactive); with OVCAR-3, > 100 µM (inactive); in the test on HOP-62 it was > 100 µM (inactive); in the test with RPMI-8226, 1 µM (active); in the test on K562 it was 10 µM (inactive); with NCI-H226, > 100 µM (inactive). The GI50 in the test with IGROV-1, in the test on NCI-H23, in the test with EKVX, in the test on UACC-257, with SF-268 and with OVCAR-4 was > 100 µM (inactive) each time. Besides, the GI50 in the test with U-251, in the test with SK-MEL-2 and in the test with MDA-N was > 100 µM (inactive) each time.

Take `COc1cc(/C=C2\C(=O)N(c3ccccc3Cl)C(c3ccccc3)S2(=O)=O)cc(OC)c1OC` (centres undefined): the GI50 is 30.3 µM (inactive) with UO-31; 47.4 µM (inactive) with OVCAR-3; 53 µM (inactive) in the test with HOP-62; 17.2 µM (inactive) in the test with RPMI-8226; 22 µM (inactive) with K562; 30.7 µM (inactive) with SK-OV-3. The GI50 with NCI-H226 was 42 µM (inactive); in the test with NCI-H23, 39.1 µM (inactive); with EKVX, 41.4 µM (inactive); in the test on RXF 393, 19.5 µM (inactive); with UACC-257, 51.1 µM (inactive); with SF-268, 46.7 µM (inactive). The GI50 in the test with OVCAR-4 is 57.3 µM (inactive); in the test on U-251, 24.2 µM (inactive); with SK-MEL-2, 44.1 µM (inactive); in the test with MDA-N, 15.2 µM (inactive); with ACHN, > 100 µM (inactive).

For the compound `CCCCC(=O)c1ccc2ccccc2c1O`, the GI50 with UO-31 was > 100 µM (inactive); in the test on HOP-62 it was > 100 µM (inactive); in the test with RPMI-8226, 35.5 µM (inactive); in the test on K562 it was 28.8 µM (inactive); in the test on SK-OV-3 it was > 100 µM (inactive); with NCI-H226, > 100 µM (inactive). Also, the GI50 with IGROV-1 was > 100 µM (inactive); in the test with NCI-H23 it was > 100 µM (inactive); in the test on EKVX, 62.1 µM (inactive); in the test with SR, 62.5 µM (inactive); with RXF 393, 99.1 µM (inactive); in the test with UACC-257, > 100 µM (inactive). Moreover, the GI50 in the test on SF-268, with OVCAR-4, in the test with U-251, in the test with SK-MEL-2 and in the test with ACHN was > 100 µM (inactive) in each case.

Turning to `CC1(C(=O)O)CCCC1C(=O)O` (centres undefined), the GI50 with UO-31 was > 100 µM (inactive); in the test with OVCAR-3, > 100 µM (inactive); in the test on HOP-62, > 100 µM (inactive); in the test with RPMI-8226, 4.51 µM (inactive); in the test on K562, > 100 µM (inactive); in the test with NCI-H226, > 100 µM (inactive). The GI50 with IGROV-1, with NCI-H23, with EKVX, in the test with RXF 393, in the test with UACC-257 and in the test on SF-268 was > 100 µM (inactive) each time. For the same compound, the GI50 with OVCAR-4, in the test on U-251, in the test on SK-MEL-2, in the test on MDA-N and with ACHN was > 100 µM (inactive) in each case.

Take `COc1cc2c(cc1OC)C1Cc3ccc(OC)c(OC)c3C[N+]1([O-])CC2` (centres undefined): the GI50 in the test with UO-31 was > 100 µM (inactive); in the test with OVCAR-3, > 100 µM (inactive); in the test with HOP-62 it was > 100 µM (inactive); with RPMI-8226 it was 74.5 µM (inactive); in the test on K562, > 100 µM (inactive); in the test on NCI-H23, > 100 µM (inactive). For the same compound, the GI50 in the test on EKVX, in the test on UACC-257, with SF-268, with OVCAR-4, in the test with U-251 and in the test with SK-MEL-2 was > 100 µM (inactive) each time. Further, the GI50 with ACHN is > 100 µM (inactive).

With `O=C(NC1CCCCC1NC(c1ccccc1)(c1ccccc1)c1ccccc1)C(=O)NC1CCCCC1NC(c1ccccc1)(c1ccccc1)c1ccccc1` (centres undefined), the GI50 was 43.6 µM (inactive) in the test with UO-31; > 100 µM (inactive) with OVCAR-3; 27.5 µM (inactive) in the test with HOP-62; > 100 µM (inactive) with RPMI-8226; > 100 µM (inactive) in the test on K562; 28.6 µM (inactive) with SK-OV-3. Further, the GI50 was 59.3 µM (inactive) in the test on NCI-H226; 69.2 µM (inactive) in the test with IGROV-1; > 100 µM (inactive) in the test on NCI-H23; 67.3 µM (inactive) with EKVX; > 100 µM (inactive) in the test on SR; > 100 µM (inactive) in the test with UACC-257. The GI50 in the test with SF-268 is 24 µM (inactive); in the test on OVCAR-4, 22.6 µM (inactive); with U-251, 21 µM (inactive); in the test with SK-MEL-2 it was > 100 µM (inactive); with ACHN it was 92 µM (inactive).

As to `CC(=O)Oc1cc2c(n(C)c1=O)-c1ccccc1C2`, the GI50 with UO-31 was 41 µM (inactive); in the test with OVCAR-3 it was 33.3 µM (inactive); in the test with HOP-62 it was 81.7 µM (inactive); in the test on RPMI-8226, > 100 µM (inactive); with K562, > 100 µM (inactive); with SK-OV-3 it was > 100 µM (inactive). For the same compound, the GI50 is > 100 µM (inactive) with NCI-H226; 36.2 µM (inactive) in the test on IGROV-1; 75.5 µM (inactive) in the test on NCI-H23; > 100 µM (inactive) with RXF 393; > 100 µM (inactive) with UACC-257; 44.1 µM (inactive) with SF-268. Besides, the GI50 in the test on OVCAR-4 was 32.5 µM (inactive); in the test with U-251, 75.9 µM (inactive); in the test with SK-MEL-2, > 100 µM (inactive); in the test on MDA-N, > 100 µM (inactive); in the test on ACHN, 32.5 µM (inactive).

`Nc1ccc2c(c1)C(=O)c1ccccc1-2`: the GI50 in the test with UO-31 was 68.2 µM (inactive); in the test on OVCAR-3, 55.7 µM (inactive); in the test with HOP-62, > 100 µM (inactive); in the test with RPMI-8226, > 100 µM (inactive); in the test with K562 it was 51.6 µM (inactive); with NCI-H226, > 100 µM (inactive). In addition, the GI50 with IGROV-1 was > 100 µM (inactive); in the test with NCI-H23, > 100 µM (inactive); in the test with EKVX, 89.7 µM (inactive); with SR it was 23.6 µM (inactive); with RXF 393 it was > 100 µM (inactive); with UACC-257, > 100 µM (inactive). Further, the GI50 is > 100 µM (inactive) in the test on SF-268; > 100 µM (inactive) in the test with OVCAR-4; > 100 µM (inactive) in the test with U-251; > 100 µM (inactive) in the test on SK-MEL-2; 72.9 µM (inactive) in the test with ACHN.

Turning to `C=CCc1oc(C)nc1CCCC`, the GI50 in the test with UO-31, with OVCAR-3, in the test on HOP-62, in the test with K562, with SK-OV-3 and in the test on NCI-H226 was > 100 µM (inactive) each time. Besides, the GI50 in the test with IGROV-1, in the test with NCI-H23, with EKVX, in the test on RXF 393, in the test with UACC-257 and in the test on SF-268 was > 100 µM (inactive) throughout. Also, the GI50 with OVCAR-4, in the test on U-251, in the test with MDA-N and in the test with ACHN was > 100 µM (inactive) throughout.
